What follows are molecules tested against T1, full-length ATR (Homo sapiens, UniProt Q13535) (assay: ATR Inhibition Assay (radioactive-phosphate incorporation)). Settings: Ki(app); 5 nM full-length ATR, 10 μM ATP, 800 μM target peptide, 25° C.
T1 construct: in the presence of 5 nM full-length ATR
T1 sequence (Q13535 whole entry): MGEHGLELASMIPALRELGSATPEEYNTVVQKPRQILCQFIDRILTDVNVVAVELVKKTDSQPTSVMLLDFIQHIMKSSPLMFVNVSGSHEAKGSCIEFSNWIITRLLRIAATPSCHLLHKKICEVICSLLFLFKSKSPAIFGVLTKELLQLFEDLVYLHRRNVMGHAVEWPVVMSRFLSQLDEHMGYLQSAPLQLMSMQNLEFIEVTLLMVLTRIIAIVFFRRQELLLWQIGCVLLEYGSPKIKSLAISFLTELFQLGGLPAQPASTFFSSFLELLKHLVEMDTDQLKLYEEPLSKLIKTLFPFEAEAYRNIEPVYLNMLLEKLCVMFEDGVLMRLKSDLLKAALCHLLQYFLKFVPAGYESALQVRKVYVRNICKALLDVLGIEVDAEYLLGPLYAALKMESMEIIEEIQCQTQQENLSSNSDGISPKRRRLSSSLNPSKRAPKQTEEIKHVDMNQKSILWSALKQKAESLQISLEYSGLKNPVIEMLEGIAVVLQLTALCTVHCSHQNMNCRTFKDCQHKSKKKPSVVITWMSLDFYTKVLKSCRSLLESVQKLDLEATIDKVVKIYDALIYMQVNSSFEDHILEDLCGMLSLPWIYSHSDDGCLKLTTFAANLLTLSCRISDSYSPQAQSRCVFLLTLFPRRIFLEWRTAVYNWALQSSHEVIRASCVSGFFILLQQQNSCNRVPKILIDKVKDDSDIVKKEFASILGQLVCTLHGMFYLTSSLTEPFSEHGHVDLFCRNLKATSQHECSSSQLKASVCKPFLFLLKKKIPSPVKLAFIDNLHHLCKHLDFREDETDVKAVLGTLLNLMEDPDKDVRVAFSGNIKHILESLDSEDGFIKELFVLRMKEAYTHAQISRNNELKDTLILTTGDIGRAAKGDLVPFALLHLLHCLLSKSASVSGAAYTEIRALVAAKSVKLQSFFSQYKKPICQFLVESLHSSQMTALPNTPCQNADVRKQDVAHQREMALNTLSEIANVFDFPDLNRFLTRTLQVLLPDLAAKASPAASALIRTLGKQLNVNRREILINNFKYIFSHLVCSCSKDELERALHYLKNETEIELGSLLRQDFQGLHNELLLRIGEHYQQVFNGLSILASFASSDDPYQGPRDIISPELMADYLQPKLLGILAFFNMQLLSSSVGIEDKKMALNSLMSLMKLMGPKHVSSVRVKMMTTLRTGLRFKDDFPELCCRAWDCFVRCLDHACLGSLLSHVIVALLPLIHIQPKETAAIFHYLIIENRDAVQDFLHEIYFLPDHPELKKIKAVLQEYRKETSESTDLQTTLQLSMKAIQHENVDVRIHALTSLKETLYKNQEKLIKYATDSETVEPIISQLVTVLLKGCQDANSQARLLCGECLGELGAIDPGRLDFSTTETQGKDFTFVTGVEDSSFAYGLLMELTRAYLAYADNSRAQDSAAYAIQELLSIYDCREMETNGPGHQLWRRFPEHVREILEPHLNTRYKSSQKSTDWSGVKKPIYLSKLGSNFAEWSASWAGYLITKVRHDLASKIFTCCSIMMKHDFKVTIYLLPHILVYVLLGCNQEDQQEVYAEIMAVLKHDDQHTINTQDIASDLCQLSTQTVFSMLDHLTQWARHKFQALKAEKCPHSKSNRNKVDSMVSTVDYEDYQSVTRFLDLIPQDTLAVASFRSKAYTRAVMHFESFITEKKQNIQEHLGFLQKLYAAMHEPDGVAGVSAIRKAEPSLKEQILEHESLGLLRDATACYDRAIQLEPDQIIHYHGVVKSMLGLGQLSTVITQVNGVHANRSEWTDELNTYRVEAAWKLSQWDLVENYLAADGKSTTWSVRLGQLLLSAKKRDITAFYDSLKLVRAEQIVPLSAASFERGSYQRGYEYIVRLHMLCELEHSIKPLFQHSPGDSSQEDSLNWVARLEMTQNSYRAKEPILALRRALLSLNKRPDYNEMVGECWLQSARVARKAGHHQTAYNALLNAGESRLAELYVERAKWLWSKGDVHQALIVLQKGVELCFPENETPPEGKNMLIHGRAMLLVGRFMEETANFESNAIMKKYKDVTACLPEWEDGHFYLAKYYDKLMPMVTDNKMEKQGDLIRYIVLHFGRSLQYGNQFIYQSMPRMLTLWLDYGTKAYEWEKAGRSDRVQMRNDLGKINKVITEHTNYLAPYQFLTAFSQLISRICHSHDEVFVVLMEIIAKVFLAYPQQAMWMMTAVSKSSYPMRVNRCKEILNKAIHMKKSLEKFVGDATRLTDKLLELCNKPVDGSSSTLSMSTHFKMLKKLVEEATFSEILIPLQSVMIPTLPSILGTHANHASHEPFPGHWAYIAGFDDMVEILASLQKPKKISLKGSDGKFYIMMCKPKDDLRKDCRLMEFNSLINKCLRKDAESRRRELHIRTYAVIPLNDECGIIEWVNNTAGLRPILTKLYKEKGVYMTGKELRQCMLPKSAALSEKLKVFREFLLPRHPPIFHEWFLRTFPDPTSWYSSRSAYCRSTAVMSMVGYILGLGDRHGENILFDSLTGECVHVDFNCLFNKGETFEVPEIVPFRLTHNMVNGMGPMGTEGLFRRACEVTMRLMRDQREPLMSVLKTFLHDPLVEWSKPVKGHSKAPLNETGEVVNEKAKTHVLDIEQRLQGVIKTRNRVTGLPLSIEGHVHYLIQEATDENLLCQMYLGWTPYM
Assay type: biochemical
Procedure, shortened: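 Buffer was 50 mM Tris/HCl pH 7.5, 10 mM MgCl2, 1 mM DTT, with 5 nM enzyme, 10 μM [γ-33P]ATP and 800 μM target peptide at 25 °C. Compound was pre-incubated 10 min before ATP start, and the reaction was stopped after 24 h. Phosphocellulose filter capture; Ki(app) came from non-linear regression of background-corrected initial rates.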
Molecule `Nc1ncc(N2CCN(S(=O)(=O)c3ccccc3)CC2)nc1-c1nnc(-c2ccccc2)o1` [Compound I-196, 3-(5-phenyl-1,3,4-oxadiazol-2-yl)-5-(4-(phenylsulfonyl)piperazin-1-yl)pyrazin-2-amine] has a Ki of 100 to 1000 nM.
For `Nc1ncc(N2CCN(C(=O)Cc3ccccc3)CC2)nc1-c1nnc(-c2ccccc2)o1` [Compound I-197, 1-(4-(5-amino-6-(5-phenyl-1,3,4-oxadiazol-2-yl)pyrazin-2-yl)piperazin-1-yl)-2-phenylethanone], the Ki was 100 to 1000 nM.
Molecule `CC(C)(C)C(=O)N1CCN(c2cnc(N)c(-c3nnc(-c4ccccc4)o3)n2)CC1` [Compound I-198, 1-(4-(5-amino-6-(5-phenyl-1,3,4-oxadiazol-2-yl)pyrazin-2-yl)piperazin-1-yl)-2,2-dimethylpropan-1-one] has a Ki of 100 to 1000 nM.
Work on `CC(C)C(=O)N1CCN(c2cnc(N)c(-c3nc4ccccc4[nH]3)n2)CC1` [Compound I-199, 1-(4-(5-amino-6-(1H-benzo[d]imidazol-2-yl)pyrazin-2-yl)piperazin-1-yl)-2-methylpropan-1-one] yielded a Ki of 1000 to 10000 nM.
For `Nc1ncc(C2=CCN(C(=O)C3CCC3)CC2)nc1-c1nc2ccccc2[nH]1` [Compound I-200, (4-(5-amino-6-(1H-benzo[d]imidazol-2-yl)pyrazin-2-yl)-5,6-dihydropyridin-1(2H)-yl)(cyclobutyl)methanone], the Ki was < 100 nM.
In the case of `Nc1ncc(C2=CCN(C(=O)Cc3ccccc3)CC2)nc1-c1nnc(-c2ccccc2)o1` [Compound I-201, 1-(4-(5-amino-6-(5-phenyl-1,3,4-oxadiazol-2-yl)pyrazin-2-yl)-5,6-dihydropyridin-1(2H)-yl)-2-phenylethanone], the Ki is reported as < 100 nM.
`Nc1ncc(N2CCN(S(=O)(=O)c3c(F)cccc3F)CC2)nc1-c1nnc(-c2ccccc2)o1` [Compound I-202, 5-(4-(2,6-difluorophenylsulfonyl)piperazin-1-yl)-3-(5-phenyl-1,3,4-oxadiazol-2-yl)pyrazin-2-amine] was tested, and the Ki was 100 to 1000 nM.
`Nc1ncc(N2CCN(C(=O)c3c(F)cccc3F)CC2)nc1-c1nnc(-c2ccccc2)o1` [Compound I-203, (4-(5-amino-6-(5-phenyl-1,3,4-oxadiazol-2-yl)pyrazin-2-yl)piperazin-1-yl)(2,6-difluorophenyl)methanone] was tested, and the Ki was 100 to 1000 nM.
`Nc1ncc(N2CC[C@H](NC(=O)C3CCCC3)C2)nc1-c1nc2ccccc2[nH]1` [Compound I-204, (S)-N-(1-(5-amino-6-(1H-benzo[d]imidazol-2-yl)pyrazin-2-yl)pyrrolidin-3-yl)cyclopentanecarboxamide] gave a Ki of 100 to 1000 nM.
In the case of `Nc1ncc(N2CC[C@H](NC(=O)COc3ccccc3)C2)nc1-c1nc2ccccc2[nH]1` [Compound I-205, (S)-N-(1-(5-amino-6-(1H-benzo[d]imidazol-2-yl)pyrazin-2-yl)pyrrolidin-3-yl)-2-phenoxyethanamide], the Ki is reported as 100 to 1000 nM.
`Nc1ncc(C2=CCN(C(=O)C3CCCC3)CC2)nc1-c1nc2ccccc2[nH]1` [Compound I-206, (4-(5-amino-6-(1H-benzo[d]imidazol-2-yl)pyrazin-2-yl)-5,6-dihydropyridin-1(2H)-yl)(cyclopentyl)methanone] was tested, and the Ki was 100 to 1000 nM.
For `Nc1ncc(N2CCN(S(=O)(=O)c3ccccc3)CC2)nc1C(=O)Nc1ccccn1` [Compound I-207, 3-amino-6-(4-(phenylsulfonyl)piperazin-1-yl)-N-(pyridin-2-yl)pyrazine-2-carboxamide], the Ki was 100 to 1000 nM.
In the case of `Nc1ncc(N2CCN(C(=O)c3ccccc3)CC2)nc1-c1nc2ccccc2[nH]1` [Compound I-208, (4-(5-amino-6-(1H-benzo[d]imidazol-2-yl)pyrazin-2-yl)piperazin-1-yl)(phenyl)methanone], the Ki is reported as 100 to 1000 nM.
Work on `CC(C)(C)C(=O)N1CCN(c2cnc(N)c(C(=O)Nc3ccccn3)n2)CC1` [Compound I-209, 3-amino-6-(4-(2,2-dimethylpropanoyl)piperazin-1-yl)-N-(pyridin-2-yl)pyrazine-2-carboxamide] yielded a Ki of 1000 to 10000 nM.
For `Nc1ncc(C2=CCN(S(=O)(=O)c3ccccc3)CC2)nc1-c1nc2ccccc2[nH]1` [Compound I-210, 3-(1H-benzo[d]imidazol-2-yl)-5-(1-(phenylsulfonyl)-1,2,3,6-tetrahydropyridin-4-yl)pyrazin-2-amine], the Ki was < 100 nM.
Work on `CCC(CC)C(=O)N[C@H]1CCN(c2cnc(N)c(-c3nc4ccccc4[nH]3)n2)C1` [Compound I-211, (S)-N-(1-(5-amino-6-(1H-benzo[d]imidazol-2-yl)pyrazin-2-yl)pyrrolidin-3-yl)-2-ethylbutanamide] yielded a Ki of 1000 to 10000 nM.
Work on `CCC(CC)C(=O)N1CCN(c2cnc(N)c(C(=O)Nc3ccccn3)n2)CC1` [Compound I-212, 3-amino-6-(4-(2-ethylbutanoyl)piperazin-1-yl)-N-(pyridin-2-yl)pyrazine-2-carboxamide] yielded a Ki of 1000 to 10000 nM.
Molecule `Nc1ncc(C2=CCN(C(=O)Cc3ccccc3)CC2)nc1-c1nc2ccccc2[nH]1` [Compound I-213, 1-(4-(5-amino-6-(1H-benzo[d]imidazol-2-yl)pyrazin-2-yl)-5,6-dihydropyridin-1(2H)-yl)-2-phenylethanone] has a Ki of 100 to 1000 nM.
With `CC(C)(C)C(=O)N1CC=C(c2cnc(N)c(-c3nc4ccccc4[nH]3)n2)CC1` [Compound I-214, 1-(4-(5-amino-6-(1H-benzo[d]imidazol-2-yl)pyrazin-2-yl)-5,6-dihydropyridin-1(2H)-yl)-2,2-dimethylpropan-1-one] the Ki was 100 to 1000 nM.
With `Nc1ncc(C2=CCN(C(=O)c3c(F)cccc3F)CC2)nc1-c1nc2ccccc2[nH]1` [Compound I-215, (4-(5-amino-6-(1H-benzo[d]imidazol-2-yl)pyrazin-2-yl)-5,6-dihydropyridin-1(2H)-yl)(2,6-difluorophenyl)methanone] the Ki was < 100 nM.
Work on `Nc1ncc(N2CCN(C(=O)N3CCOCC3)CC2)nc1-c1nnc(-c2ccccc2)o1` [Compound I-216, (4-(5-amino-6-(5-phenyl-1,3,4-oxadiazol-2-yl)pyrazin-2-yl)piperazin-1-yl)(morpholino)methanone] yielded a Ki of 100 to 1000 nM.
For `Nc1ncc(C2=CCN(C(=O)N3CCOCC3)CC2)nc1-c1nnc(-c2ccccc2)o1` [Compound I-217, (4-(5-amino-6-(5-phenyl-1,3,4-oxadiazol-2-yl)pyrazin-2-yl)-5,6-dihydropyridin-1(2H)-yl)(morpholino)methanone], the Ki was < 100 nM.
`CN(C)C(=O)N1CCN(c2cnc(N)c(-c3nnc(-c4ccccc4)o3)n2)CC1` [Compound I-218, 4-(5-amino-6-(5-phenyl-1,3,4-oxadiazol-2-yl)pyrazin-2-yl)-N,N-dimethylpiperazine-1-carboxamide] showed a Ki of 100 to 1000 nM.
`CS(=O)(=O)N1CCN(c2cnc(N)c(C(=O)Nc3ccccn3)n2)CC1` [Compound I-219, 3-amino-6-(4-(methylsulfonyl)piperazin-1-yl)-N-(pyridin-2-yl)pyrazine-2-carboxamide] was tested, and the Ki was 100 to 1000 nM.
In the case of `CN(C)C(=O)N1CC=C(c2cnc(N)c(-c3nnc(-c4ccccc4)o3)n2)CC1` [Compound I-220, 4-(5-amino-6-(5-phenyl-1,3,4-oxadiazol-2-yl)pyrazin-2-yl)-N,N-dimethyl-5,6-dihydropyridine-1(2H)-carboxamide], the Ki is reported as < 100 nM.
`COCCOC(=O)N1CCN(c2cnc(N)c(-c3nnc(-c4ccccc4)o3)n2)CC1` [Compound I-221, 2-methoxyethyl 4-(5-amino-6-(5-phenyl-1,3,4-oxadiazol-2-yl)pyrazin-2-yl)piperazine-1-carboxylate] was tested, and the Ki was 100 to 1000 nM.
For `Nc1ncc(C2=CCN(S(=O)(=O)c3cccnc3)CC2)nc1-c1nnc(-c2ccccc2)o1` [Compound I-222, 3-(5-phenyl-1,3,4-oxadiazol-2-yl)-5-(1-(pyridin-3-ylsulfonyl)-1,2,3,6-tetrahydropyridin-4-yl)pyrazin-2-amine], the Ki was < 100 nM.
With `Nc1ncc(N2CCN(C(=O)N3CCCC3)CC2)nc1-c1nnc(-c2ccccc2)o1` [Compound I-223, (4-(5-amino-6-(5-phenyl-1,3,4-oxadiazol-2-yl)pyrazin-2-yl)piperazin-1-yl)(pyrrolidin-1-yl)methanone] the Ki was 100 to 1000 nM.
In the case of `COCCOC(=O)N1CC=C(c2cnc(N)c(-c3nnc(-c4ccccc4)o3)n2)CC1` [Compound I-224, 2-methoxyethyl 4-(5-amino-6-(5-phenyl-1,3,4-oxadiazol-2-yl)pyrazin-2-yl)-5,6-dihydropyridine-1(2H)-carboxylate], the Ki is reported as < 100 nM.
`COC(=O)N1CCN(c2cnc(N)c(-c3nnc(-c4ccccc4)o3)n2)CC1` [Compound I-225, methyl 4-(5-amino-6-(5-phenyl-1,3,4-oxadiazol-2-yl)pyrazin-2-yl)piperazine-1-carboxylate] gave a Ki of 100 to 1000 nM.
In the case of `Nc1ncc(C2=CCN(C(=O)N3CCCC3)CC2)nc1-c1nnc(-c2ccccc2)o1` [Compound I-226, (4-(5-amino-6-(5-phenyl-1,3,4-oxadiazol-2-yl)pyrazin-2-yl)-5,6-dihydropyridin-1(2H)-yl)(pyrrolidin-1-yl)methanone], the Ki is reported as < 100 nM.
Molecule `Nc1ncc(C2=CCN(C(=O)N3CCOCC3)CC2)nc1-c1nc2ccccc2[nH]1` [Compound I-227, (4-(5-amino-6-(1H-benzo[d]imidazol-2-yl)pyrazin-2-yl)-5,6-dihydropyridin-1(2H)-yl)(morpholino)methanone] has a Ki of 100 to 1000 nM.
With `COC(=O)N1CC=C(c2cnc(N)c(-c3nnc(-c4ccccc4)o3)n2)CC1` [Compound I-228, methyl 4-(5-amino-6-(5-phenyl-1,3,4-oxadiazol-2-yl)pyrazin-2-yl)-5,6-dihydropyridine-1(2H)-carboxylate] the Ki was < 100 nM.
`CN(C)C(=O)N1CCN(c2cnc(N)c(C(=O)Nc3ccccn3)n2)CC1` [Compound I-229, 3-amino-6-(4-(dimethylcarbamoyl)piperazin-1-yl)-N-(pyridin-2-yl)pyrazine-2-carboxamide] gave a Ki of 100 to 1000 nM.
With `Nc1ncc(N2CCN(C(=O)C3CCOCC3)CC2)nc1C(=O)Nc1ccccn1` [Compound I-230, 3-amino-N-(pyridin-2-yl)-6-(4-(tetrahydro-2H-pyran-4-carbonyl)piperazin-1-yl)pyrazine-2-carboxamide] the Ki was 1000 to 10000 nM.

— patent US8410112B2, “Compounds useful as inhibitors of ATR kinase” (Vertex Pharmaceuticals Incorporated, priority 2008, dated 2013)
